Measurements: publication PMC11219860, “A chemogenetic approach for dopamine imaging with tunable sensitivity” (Nature Communications, 2024)

Experiments:
[1] = system: dLight1.3b-expressing HEK293T sniffer cells on primary DArgic neurons; test: DA release imaging from cultured DArgic neurons with dLight1.3b sniffer cells; assay type: cell-based, mouse; conditions: DETQ 200 nM added to 4-AP perfusion
Experimental: Primary DA (DA) neurons were grown on a layer of cortical astrocytes. The astrocytes were first prepared from P0-P2 C57BL6 mice, grown in T75 flask and then seeded on collagen/poly-L-lysine coated 15 mm glass coverslips at a concentration of 100,000 cells/ml. The cells were allowed to grow until close to confluence before the seeding of neurons. Primary DArgic neurons were prepared and cultured from P0-P2 mouse pups using a previously described protocol. Briefly, the ventral midbrain of P0-P2 pups was dissected from DAT^IREScre x Ai9 mice in which DA neurons expressed the red fluorescent protein tdTomato. These were produced by crossing DAT^IREScre mice (catalog #006660, Jackson Labs[31]) to Ai9/tdTomato mice (catalog #007905, Jackson Labs[32]). Both of these lines were on a C57BL/6 J background. Midbrain cells were seeded at a concentration of 240,000 cells/ml on top of the astrocyte monolayer and allowed to grow for 10 days (10 DIV). Two days before imaging, expression of dLight1.3b was induced in stable HEK cells with doxycycline. One day prior to imaging, HEK cells were lifted using trypsin, and 150,000 HEK cells were seeded on top of 10 DIV-cultured neurons in doxycycline-supplemented neuronal medium. Imaging was performed on a confocal microscope (Nikon A1 HD25) using a 40X dry objective and a 488 nm laser to excite dLight1.3b and a 546 nm laser to activate tdTomato and identify DA neurons. On the day of imaging, physiological saline containing drugs at the specified concentration ([…], Sigma; SCH23390, Sigma; DETQ, Enamine) were applied on the culture using a computer-controlled perfusion system (Automate system). A field containing one or more DA neurons was selected based on the tdTomato signal. […]
Event detection was performed using a thresholding algorithm adapted from[80]. In brief, the recorded field of view was divided into square ROIs of 55 um x 55 um size. […] A rolling standard deviation was calculated with the same window size. Events were defined as timepoints at which the fluorescence intensity reading exceeds the averaged intensity by 5 standard deviations.

[2] = In vivo pharmacokinetics, free brain concentration (LC/MS); design: species or system mouse; conditions: 10 mg/kg i.p.
Experimental: To measure free brain and plasma concentrations of DETQ in the mouse, male C57Bl6/N mice from Taconic Biosciences (Germantown, NY, USA) weighing 23–25 g (9–10 weeks old) were used for this study. The animals were acclimated for at least 72 hours after arrival from the breeder and housed five per cage in “shoe box” size cages with free access to food and water (lights on from 5 am to 5 pm) before use. The experiment was approved by the Institutional IACUC committee, and Eli Lilly is an AAALAC-certified facility. DETQ (Eli Lilly, see above) was formulated as a fine suspension in 20% HPBCD in purified water using ultrasonication. The drug was administered intraperitoneally at 10 mg/kg body weight (10 mL/kg. dose volume) with four animals per time point (0.25, 0.5, 0.75, 1, 1.5, and 2 hr). The animals were decapitated at the time points indicated above, and their frontal brains (mainly frontal cortex) were rapidly dissected and frozen. Blood was collected at decapitation, and plasma was separated by centrifugation. Both samples were then stored at −80 °C until further analysis. DETQ concentrations were measured in plasma and brain tissues by liquid chromatography with tandem mass spectrometry (LC/MS). The samples were analyzed using an AB Sciex API 4000 quadrupole mass spectrometer (Applied Biosystems, Foster City, CA) with a TurboIonSpray interface. Brain samples were homogenized in a methanol-water solution (20:80) using a probe sonicator. Both brain and plasma samples underwent extraction procedures. Calibration curves were established by spiking blank plasma or brain samples with an internal standard. The system utilized Shimadzu LC-10AD pumps controlled by an SCL-10A controller (Kyoto, Japan). Sample injections were performed by a Z-215 liquid handler (Gilson, Middleton, WI). Chromatographic separation of all compounds was achieved using a Betasil javelin C18 HPLC column, 20 mm × 2.1 mm, 5 μm (Thermo Fisher Scientific, Waltham, MA). The unbound fraction in brain tissue samples was determined by equilibrium dialysis in mouse brain homogenate mixtures after incubation of the compound for 4.5 hours. The unbound brain concentrations were calculated from the following equation[24]: Totalbrainconcentration*Unboundfractioninbrain=Unboundbrainconcentration(Cu,brain)

dLight1.3b = test: NAc dLight1.3b photometry with food restriction; assay type: in vivo, mouse; conditions: DETQ 10 mg/kg
Experimental: To determine how metabolic state modulates tonic DA levels, DAT^IREScre mice expressing dLight1.3b in the NAc core were tested in either the fed state (ad libitum), the food-restricted state (mice food restricted to 90% of baseline body weight for 5–7 days), or after 4 weeks recovery from food-restriction (ad libitum). Daily food intake was measured per cage (2–3 mice per cage). […] Mice were injected i.p. with vehicle at 0 min and DETQ (10 mg/kg) 10–15 min later, then recording lasted 50 min.
For long-term recordings during optogenetic stimulation or chemogenetic inhibition linear fit was calculated across the entire recording or across the vehicle epoch; for event-related experiments fit was performed on fluorescent data obtained in the −60 to +60 s around opto events or −5 to −1 s around behavioral events. […] DA event-related responses were quantified by computing the value at the transient’s peak value and the AUC in the 0 to 10 s or 0 to 60 s period post-event onset. […] The maximal peak value of Veh-normalized ΔF/F0 after opto-onset was plotted over time and the plateau of maximal response was determined by averaging peak opto responses 5, 10, 15 and 20 min post-DETQ. […] AUC of the baseline was calculated within the +5 to +40 minutes time window post ip injection. […]

msDRD1 = biological target: T1, msDRD1 (Mus musculus, UniProt Q61616); conditions: cited from earlier work
T1 construct: expressed in transfected cells; host or cells: HEK293T
T1 sequence (Q61616 whole entry): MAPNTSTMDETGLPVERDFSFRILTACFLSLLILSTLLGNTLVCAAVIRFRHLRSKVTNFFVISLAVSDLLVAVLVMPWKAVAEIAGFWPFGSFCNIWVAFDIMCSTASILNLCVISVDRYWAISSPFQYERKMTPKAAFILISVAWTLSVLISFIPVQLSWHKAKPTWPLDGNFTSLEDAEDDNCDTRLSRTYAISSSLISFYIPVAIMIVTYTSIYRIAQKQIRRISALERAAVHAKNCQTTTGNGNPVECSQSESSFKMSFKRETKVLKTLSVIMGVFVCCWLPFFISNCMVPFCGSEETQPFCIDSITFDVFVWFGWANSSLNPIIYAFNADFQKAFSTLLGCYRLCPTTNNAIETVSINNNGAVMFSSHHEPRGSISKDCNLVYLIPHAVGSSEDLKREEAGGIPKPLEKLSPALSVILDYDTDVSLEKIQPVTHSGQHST

Compound: C[C@H]1c2cccc(C(C)(C)O)c2C[C@H](CO)N1C(=O)Cc1c(Cl)cccc1Cl [DETQ, 2-(2,6-dichlorophenyl)-1-((1S,3R)-3-(hydroxymethyl)-5-(2-hydroxypropan-2-yl)-1-methyl-3,4-dihydroisoquinolin-2(1H)-yl)ethan-1-one]
- number of detected phasic DA release events [1]: increased
- sensor baseline signal (tonic DA) [1]: long-lasting increase
- clearance from the brain ([2]; 2 hours post-injection): almost completely cleared
- concentration at 1 h ([2]; male, C57Bl6/N, mouse, brain (frontal brain, unbound concentration), intraperitoneal, 1-hour post-injection, read-out: free brain level): < 50 nM
- concentration at 15 min ([2]; male, C57Bl6/N, mouse, brain (frontal brain, unbound concentration), intraperitoneal, 15 minutes after dosing, read-out: free brain level): ~270 nM
- concentration at 45 min ([2]; male, C57Bl6/N, mouse, brain (frontal brain, unbound concentration), intraperitoneal, 45 minutes post-injection, read-out: free brain level): ~110 nM
- step-like increase in baseline fluorescence, food-restriction versus ad libitum state (dLight1.3b): significantly higher
- Kb (msDRD1): 312 nM
- fold less potent on msDRD1 than on hmDRD1 (msDRD1): > 30 fold
- selectivity for human vs mouse D1 in potentiator mode (msDRD1; potentiation of dopamine induced activation of cAMP, ref Hao et al., 2019, Wang et al., 2018): 30 x
- partial potentiation of dopamine (% of max potentiation) (msDRD1; rodent (rat or mouse), ref Hao et al., 2019, Wang et al., 2018): 45-53%
